Assay results as given in PubChem BioAssay (NCI).
Values joined by “and” are separate entries in the source; they are usually repeats but may differ in a detail not shown here. Equal entries are not always repeated.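 Test compounds were applied to cells in 96-well plates for 48 hours at 5 doses. GI50 is the concentration that inhibits growth by half. Definition used: TGI = concentration required for complete inhibition of growth.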

Assays:
Experiment in all cases: NCI tumour cell line growth inhibition, 48 h
[1] = test system: PC-3 prostate
[2] = test system: HS 578T breast
[3] = test system: HOP-92 NSCLC
[4] = test system: UACC-62 melanoma
[5] = test system: IGROV1 ovarian
[6] = test system: HT29 colon
[7] = test system: HCC-2998 colon
[8] = test system: SW-620 colon
[9] = test system: SF-295 CNS
[10] = test system: SNB-19 CNS

Structure (SMILES) | GI50 [1] | TGI [1] | GI50 [2] | TGI [2] | GI50 [3] | TGI [3] | GI50 [4] | TGI [4] | GI50 [5] | TGI [5] | GI50 [6] | TGI [6] | GI50 [7] | TGI [7] | GI50 [8] | TGI [8] | GI50 [9] | TGI [9] | GI50 [10] | TGI [10]
CCCCOC(=O)c1ccc(NC(=O)CCl)cc1 | 3.24 µM | 12.4 µM | 9.16 µM | 57.3 µM | 1.93 µM | 3.65 µM | 2.74 µM | 13.3 µM | 1.6 µM | 4.34 µM | 1.9 µM | 3.48 µM | 15.6 µM | 32.7 µM | 1.59 µM | 3.38 µM | 10.5 µM | 23.1 µM | 1.62 µM | 3.22 µM
CC(C)N1CCC2(CC1)NNc1ncccc1-n1cccc12 | – | – | – | – | – | – | – | – | – | – | – | > 100 µM | – | > 100 µM | – | > 100 µM | – | > 100 µM | – | > 100 µM
COc1ccc2c3c(c4ccccc4cc13)C(=O)N(CCN(C)CCN)C2=O | 0.338 µM | 1.93 µM | 1.19 µM | 3.67 µM | 0.114 µM | 0.896 µM | 0.077 µM | 1.56 µM | – | – | 0.114 µM | 1.13 µM | 0.182 µM | 1.65 µM | 0.0515 µM | 1.32 µM | 0.0437 µM | 1.03 µM | 0.0692 µM | 1.27 µM
CN(C)C(=S)/N=c1\ss/c(=N\C(=S)N(C)C)n1-c1ccc(Cl)cc1 | – | – | – | – | – | > 100 µM | – | > 100 µM | – | > 100 µM | – | > 100 µM | – | – | – | > 100 µM | – | > 100 µM | – | > 100 µM
CCOC(=O)[C@H]1CSC[C@@H](C(=O)OC)N1 | – | – | – | – | – | – | – | > 100 µM | – | > 100 µM | – | > 100 µM | – | > 100 µM | – | > 100 µM | – | > 100 µM | – | > 100 µM
COC(=O)c1ccc(NC(=O)c2cc(OC)c(OC)c(OC)c2)cc1 | – | – | – | – | – | > 100 µM | – | > 100 µM | – | > 100 µM | – | > 100 µM | – | 6.67 µM | – | > 100 µM | – | > 100 µM | – | > 100 µM
O=C(O)C(C(=O)C(=O)C(C(=O)O)c1ccc(Cl)cc1)c1ccc(Cl)cc1 (stereo not given) | – | – | – | – | – | 8.89 µM | – | 3.91 µM | – | 9.03 µM | – | 11.1 µM | – | 14.1 µM | – | 13.5 µM | – | 20.8 µM | – | 14.3 µM
O=c1cc(-c2ccccc2)nc(/C=C(\O)c2ccncc2)n1-c1ccccc1 | – | – | – | – | – | > 100 µM | – | > 100 µM | – | > 100 µM | – | > 100 µM | – | > 100 µM | – | > 100 µM | – | > 100 µM | – | > 100 µM
COc1ccc(OC)c(NCC#N)c1 | – | – | – | – | – | > 100 µM | – | > 100 µM | – | > 100 µM | – | > 100 µM | – | > 100 µM | – | > 100 µM | – | > 100 µM | – | > 100 µM
CC(=O)C1COC(O)C1C (stereo not given) | – | 55.5 µM | – | 68.8 µM | – | 78.7 µM | – | 27.2 µM | – | 42.5 µM | – | > 100 µM | – | – | – | 44.2 µM | – | 71.9 µM | – | > 100 µM
CC(=O)Nc1ccc(-c2nnc(SCC(=O)Nc3cccc([N+](=O)[O-])c3)o2)cc1 | – | – | – | – | – | 35.3 µM | – | 23.7 µM | – | 31.4 µM | – | 37.2 µM | – | – | – | 44 µM | – | 32 µM | – | –
COc1cc2cc3c4c(cc(OC)c(OC)c4c2cc1OC)CCN3C(=O)N(C)C | – | – | – | – | – | > 100 µM | – | > 100 µM | – | > 100 µM | – | > 100 µM | – | > 100 µM | – | > 100 µM | – | > 100 µM | – | > 100 µM
CCOc1ccccc1N1C(=O)C(=O)C(c2nc3ccccc3o2)/C(=N\N)C1=O (stereo not given) | – | – | – | – | – | > 100 µM | – | > 100 µM | – | > 100 µM | – | > 100 µM | – | > 100 µM | – | > 100 µM | – | > 100 µM | – | > 100 µM
NC(=O)C(=Cc1ccc(CP(=O)(O)O)cc1)C(N)=O | – | – | – | – | – | > 100 µM | – | > 100 µM | – | > 100 µM | – | > 100 µM | – | > 100 µM | – | > 100 µM | – | > 100 µM | – | > 100 µM
C/C(CC(=O)Nc1ccc(Cl)cc1)=N\NC(=O)C[n+]1ccccc1 | – | – | – | – | – | > 100 µM | – | > 100 µM | – | > 100 µM | – | > 100 µM | – | > 100 µM | – | > 100 µM | – | > 100 µM | – | –
O=C(Nc1ccc2[nH]c(C(=O)N3CC(CCl)c4c3cc([N+](=O)[O-])c3ccccc43)cc2c1)c1cc2ccccc2o1 (stereo not given) | – | – | > 1100 µM | > 1100 µM | > 1100 µM | > 1100 µM | > 1100 µM | > 1100 µM | > 1100 µM | > 1100 µM | > 1100 µM | > 1100 µM | 57.7 µM | > 1100 µM | > 1100 µM | > 1100 µM | – | > 1100 µM | > 1100 µM | > 1100 µM
O=C(/C=C/c1cccc([N+](=O)[O-])c1)c1ccc(O)c(CN2CCN(c3cc4c(cc3F)c(=O)c(C(=O)O)cn4C3CC3)CC2)c1 | 1.85 µM | 5.37 µM | 2.43 µM | 7.11 µM | 2.17 µM | 9.97 µM | 1.66 µM | 3.45 µM | – | – | 2.44 µM | 6.25 µM | 1.92 µM | 3.43 µM | 1.1 µM | 3.65 µM | 1.88 µM | 3.9 µM | 1.34 µM | 2.79 µM
NC(CC(=O)Nc1ccc(Cl)cc1)=Nc1ccccc1 | – | – | – | – | – | – | – | > 100 µM | – | > 100 µM | – | > 100 µM | – | > 100 µM | – | > 100 µM | – | > 100 µM | – | > 100 µM
Cc1cc(Oc2cnc(=O)[nH]c2)cs1 | – | > 100 µM | – | > 100 µM | – | – | – | > 100 µM | – | > 100 µM | – | > 100 µM | – | > 100 µM | – | > 100 µM | – | > 100 µM | – | > 100 µM
NC(=S)N/N=C/c1ccc(O)cn1 | – | > 1500 µM | – | > 1500 µM | 6.73 µM | > 1300 µM | 2.83 µM and 3.13 µM and 1.83 µM | 10.7 µM and 13.1 µM and 37.3 µM | 50.9 µM and 27.1 µM | 916 µM and 827 µM | 37.9 µM | > 929 µM | – | – | 27.4 µM and 13.2 µM | > 1500 µM | 33.7 µM and 31.7 µM | 113 µM and 111 µM | 29.2 µM and 8.2 µM | 1020 µM and > 1360 µM
CCCCN=C(NC#N)N(Cc1ccccc1)Cc1ccccc1 | – | – | – | – | – | 45.5 µM | – | 34.8 µM | – | 74.4 µM | – | 28.7 µM | – | 62.1 µM | – | 30.4 µM | – | 63.2 µM | – | > 100 µM
